# How the values were obtained:
# [1] = tested on: HT-29 (colon adenocarcinoma); experiment: Antiproliferative activity against CA-4-resistant HT-29 with or without verapamil (sensitivity to MDR pumps, XTT); format: cell-based, human; settings: Homo sapiens, HT-29; 72 h, XTT, without verapamil; read-out: Antiproliferative Activity IC50 HT-29
# Excerpt: Detecting changes in drug potency when inhibiting MDR-mediated efflux reflect that these transporters reduce the intracellular drug concentration. HT-29 has been reported to express moderate levels of MDR1, accounting for a resistant phenotype. A comparison of the antiproliferative IC50 values of each MDS in the presence or absence of verapamil provides an estimate of the susceptibility of each compound to efflux pumps.
# MCF7 (human breast carcinoma), SKOV-3 (human ovarian carcinoma), OVCAR-3 (human ovarian carcinoma), OVCAR-8 (human ovarian carcinoma), and HeLa (human cervical carcinoma) cell lines were cultured in Dulbecco’s Modified Eagle’s Medium (DMEM) (Gibco, Thermo Fischer Scientific) containing 10% (v/v) heat-inactivated fetal bovine serum (HIFBS) (Lonza-Cambrex, Karlskoga, Sweden), 2 mM L-glutamine (Lonza-Cambrex, Karlskoga, Sweden), 100 μg/mL streptomycin, and 100 IU/mL penicillin (Lonza-Cambrex) at 37 °C in humidified 95% air and 5% CO2. HT-29 (human colon carcinoma), IGROV-1 (human ovarian carcinoma), and A2780 (human ovarian carcinoma) cell lines were cultured in RPMI 1640 medium (Gibco, Thermo Fischer Scientific) supplemented with 10% HIFBS, 100 μg/mL streptomycin, and 100 IU/mL penicillin at 37 °C in humidified 95% air and 5% CO2 atmosphere. The presence of mycoplasma was routinely checked with MycoAlert kit (Lonza-Cambrex) and only mycoplasma-free cells were used in the experiments. Ovarian tumor cell lines were originally acquired from Dr Atanasio Pandiella from Centro de Investigación del Cáncer (CIC), Salamanca, Spain. HeLa, HT-29 and MCF7 tumor cell lines were provided by Dr Faustino Mollinedo from Centro de Investigaciones Biológicas Margarita Salas, Madrid, Spain.
# MCF7, HeLa, and HT-29 cell proliferation, when treated with the corresponding compounds, were determined using the XTT (sodium 3’-[1(phenylaminocarbonyl)-3,4-tetrazolium]-bis(4-methoxy-6-nitro)-benzenesulfonic acid hydrate) cell proliferation kit (Roche Molecular Biochemicals, Mannheim, Germany). A freshly prepared mixture of XTT labeling reagent with 0.02% (v/v) PMS (N-methyl-dibenzopyrazine methyl sulfate) electron coupling reagent was added to cells (50 µL/well in 96-well plates, total volume of 160 µL/well). Cells were incubated under standard culture conditions for 4 h (MCF7 and HeLa) or 6 h (HT-29). The absorbance of the formazan product generated was measured at 450 nm using a multi-well plate reader. SKOV-3, OVCAR-3, OVCAR-8, IGROV-1, A-2780 cell proliferation, when treated with the corresponding compound, were determined using MTT (3-(4,5-dimethylthiazol-2-yl)-2,5-diphenyl-2H-tetrazolium bromide) (Sigma-Aldrich, St. Louis, MO, USA). MTT in Phosphate Buffer Saline (PBS) (5 mg/ml) was added to cells (110 µL/well in 24-well plates, total volume of 1110 µL/well). After 1 hour of incubation, the medium was aspirated, and formazan violet crystals were dissolved in dimethyl sulfoxide (DMSO) (500 µL/well). Absorbance was measured at 570 nm in a plate reader (Ultra Evolution, Tecan, Männedorf, Suiza). To determine cell viability, cells in exponential growth phase were seeded (100 µL/well in 96-well plates and 1000 µL/well in 24-well plates) with appropriate cell line concentration (1.5·10^4 cells/mL for MCF7 and HeLa, 3·10^4 cells/mL for HT-29, and 1·10^4 cells/mL for SKOV-3, OVCAR-3, OVCAR-8, IGROV-1, and A-2780) in complete RPMI 1640 or DMEM medium at 37°C and 5% CO2 atmosphere. After 24 h incubation, to allow cells to attach to the plates, all compounds were added at 1 µM concentration and the effect on the proliferation was evaluated 72 h post-treatment. […] Non-linear curves fitting the experimental data were carried out for each compound. Compounds were dissolved in DMSO and the final solvent concentrations never exceeded 0.5% (v/v). The control wells included […] with 0.5% (v/v) DMSO and the positive control. 10 µM verapamil was included as a control for the HT-29 cell line.
# [2] = Aqueous solubility, saturation shake-flask method, UV absorbance; settings: phosphate buffer, pH 7, aqueous buffer, thermodynamic from solid
SMILES,IC50 [1],melting point,solubility at 48 h [2]
COc1ccc(S(=O)(=O)Nc2cc(OC)c(OC)c(OC)c2)cc1 [Compound 1a],897 nM,115 to 116 °C,83 µg/mL
COc1ccc(S(=O)(=O)N(C)c2cc(OC)c(OC)c(OC)c2)cc1 [Compound 2a],143 nM,123 to 124 °C,27 µg/mL
CCN(c1cc(OC)c(OC)c(OC)c1)S(=O)(=O)c1ccc(OC)cc1 [Compound 3],913 nM,140 to 143 °C,30 µg/mL
COc1ccc(S(=O)(=O)N(C(C)=O)c2cc(OC)c(OC)c(OC)c2)cc1 [Compound 5],747 nM,190 to 195 °C,38 µg/mL
CCOC(=O)CN(c1cc(OC)c(OC)c(OC)c1)S(=O)(=O)c1ccc(OC)cc1 [Compound 7],237 nM,123 to 127 °C,
COc1ccc(S(=O)(=O)N(CC(=O)O)c2cc(OC)c(OC)c(OC)c2)cc1 [Compound 8],> 1000 nM,151 to 158 °C,
COc1ccc(S(=O)(=O)N(C)c2cc(OC)c(OC)c(OC)c2NC(C)=O)cc1 [Compound 16],> 1000 nM,205 to 210 °C,
COc1cc(NS(=O)(=O)c2ccc([N+](=O)[O-])cc2)cc(OC)c1OC [Compound 25],> 1000 nM,138 to 140 °C,
COc1cc(NS(=O)(=O)c2ccc(N)cc2)cc(OC)c1OC [Compound 26],> 1000 nM,177 to 179 °C,28 µg/mL
COc1cc(N(C)S(=O)(=O)c2ccc(N(C)C)cc2)cc(OC)c1OC [Compound 29a],103 nM,134 to 140 °C,7 µg/mL
COc1cc(N(CC(=O)O)S(=O)(=O)c2ccc(N(C)C)cc2)cc(OC)c1OC [Compound 34],> 1000 nM,168 to 170 °C,
CNc1ccc(S(=O)(=O)Nc2cc(OC)c(OC)c(OC)c2)cc1 [Compound 37],807 nM,200 to 206 °C,43 µg/mL
COc1ccc(S(=O)(=O)N(CC#N)c2cc(OC)c(OC)c(OC)c2)cc1N [Compound 44],61 nM,139 to 145 °C,46 µg/mL
